System: HEK293
Test: Inhibition of Ca2+ release activated Ca2+ channels in thapsigarin-treated HEK cells
Format: cell-based
Details: Homo sapiens

Compound: CNC(=O)C[C@H]1C(=O)N(C)[C@@H](C)C(=O)OC(C)CCC/C=C/CCC(OC)C/C=C/C=C(\C)C(=O)N[C@H](C(C)C)C(=O)N(C)[C@@H](Cc2ccccc2)C(=O)N(C)[C@@H](C(C)C)C(=O)N(C)[C@@H](C(C)C)C(=O)N2CCC[C@H]2C(=O)N1C (stereo partly specified)
- Activity: Dose-dependent effect
